Reference: patent US8975289B2, “Benzyl aralkyl ether compounds, method for preparing same, intermediate compounds, use of said compounds, method for treatment and/or prevention, pharmaceutical composition and medicament containing same” (priority 2009, dated 2015)
≈ marks a conversion by molar mass, not a printed value.

Legend:
Format in all cases: cell-based
[1] = tested on: Candida parapsilosis 22019; test: Broth microdilution MIC (M27-A2), yeast, strain XV; settings: strain XV 22019, 48 hours incubation; read-out: MIC
Protocol: For the experiments of the present invention (i) yeast strains obtained from clinical isolates and laboratory isolates, and (ii) bacterial strains obtained from laboratory isolates were used, as described in Table 5 as follows. The yeast strains were grown in culture medium Sabouraud Dextrose Agar maintained at a temperature of 35° C. for 48 hours. […] The compounds were dissolved in dimethyl sulfoxide (DMSO) to match the final concentration of the compound equal to or less than 1%. The methodology used to test the sensitivity of the agent was broth microdilution according to the method described in Standard M27-A2 (Reference method for broth dilution tests to determine the sensitivity of yeasts to antifungal therapy-second edition, NCCLS, volume 22 number 15, USA, 2002) as follows. […] Then the suspensions were diluted in culture medium RPMI-1640 (buffered with MOPS 0.165 mol/l) at a final concentration of 50 to 2500 CFU/mL. The diluted suspensions were inoculated in duplicate in a 96-well plate. The procedure was performed in a laminar flow. […] The incubation of fungi with these compounds was carried out for 48 hours at temperature of 30 to 35° C. […] We have agreed in this experiment that the turbid medium is the result of microbial growth and the presence of deposit and a clear medium represents the absence of microbial growth. The minimum inhibitory concentration (MIC) was defined as the lowest tested drug concentration that prevents any degree of […] growth.

[2] = tested on: Staphylococcus aureus 6538; test: Broth microdilution MIC (M7-A6), bacteria, strain XVIII; settings: Staphylococcus aureus; strain XVIII 6538, 24 hours incubation; read-out: MIC
Protocol: For the experiments of the present invention (i) yeast strains obtained from clinical isolates and laboratory isolates, and (ii) bacterial strains obtained from laboratory isolates were used, as described in Table 5 as follows. […] The compounds were dissolved in dimethyl sulfoxide (DMSO) to match the final concentration of the compound equal to or less than 1%. The methodology used to test the sensitivity of the agent was broth microdilution according to the method described in Standard M7-A6 (Methodology of sensitivity tests to antimicrobial agents by dilution for bacteria with aerobic growth-6th Edition: NCCLS, volume 23, No. 2, USA, 2003), as follows. […] Then the suspensions were diluted in Mueller Hinton culture medium to a final concentration of 5×10^4CFU/mL. The diluted suspensions were inoculated in 0.1 mL in duplicates in […] plates. The procedure was performed in a laminar flow. […] Incubation of fungi with these compounds was carried out for 24 hours at a temperature of 30 to 35° C. […] We have agreed in this experiment that the turbid medium is the result of microbial growth and the presence of deposit and a clear medium represents the absence of microbial growth. The minimum inhibitory concentration (MIC) was defined as the lowest tested drug concentration that prevents any degree of bacterial growth.

[3] = tested on: three different species of yeast and two distinct species of bacteria; test: Growth inhibition of the yeast and bacteria strains of Table 5, summary
Protocol: For the experiments of the present invention (i) yeast strains obtained from clinical isolates and laboratory isolates, and (ii) bacterial strains obtained from laboratory isolates were used, as described in Table 5 as follows.
The yeast strains were grown in culture medium Sabouraud Dextrose Agar maintained at a temperature of 35° C. for 48 hours.
The bacterial strains were grown in culture medium Triptic Soy Agar at 35° C. for two to six hours (or until the turbidity of a McFarland standard solution equal to 0.5). 5.2 Mounting of Preparations and Test For the experiments, compound 1-[2-(2,4-dichlorophenyl)-2-{[4-(trifluoromethyl)benzyl]oxy}ethyl]-1H-imidazole (BL-123) in the form of its nitrate salt, 1-[2-(2,4-dichlorophenyl)]-2-({4-[(2-phenyl)-2H-tetrazole]benzyl}oxy)ethyl]-1H-imidazole (BL-137), and miconazole nitrate were used. The compounds were dissolved in dimethyl sulfoxide (DMSO) to match the final concentration of the compound equal to or less than 1%.
The methodology used to test the sensitivity of the agent was broth microdilution according to the method described in Standard M27-A2 (Reference method for broth dilution tests to determine the sensitivity of yeasts to antifungal therapy-second edition, NCCLS, volume 22 number 15, USA, 2002) as follows.
The yeast strains were grown according to item 5.1.a to obtain a culture containing between 1×10^6 and 5×10^6 CFU/mL. […]

SMILES | MIC [1] [µg/mL] | MIC [2] [µg/mL] | Inhibitory effect on growth (in words) [3]
FC(F)(F)c1ccc(COC(Cn2ccnc2)c2ccc(Cl)cc2Cl)cc1 (centres unmarked) [BL-123, 1-[2-(2,4-dichlorophenyl)-2-{[4-(trifluoromethyl)benzyl]oxy}ethyl]-1H-imidazole] | 4 (≈ 9.63 µM) | 4 (≈ 9.63 µM) | exert an inhibitory effect on the growth
Clc1ccc(COC(Cn2ccnc2)c2ccc(Cl)cc2Cl)c(Cl)c1 (centres unmarked) [Miconazole, miconazole, reference compound] | 2 (≈ 4.81 µM) | 2 (≈ 4.81 µM) | 
